For assay [1], the system named is riboswitch 15D10. As to the kind of experiment: Luciferase reporter with 15D10 riboswitch (Luci-15D10) in HEK 293 cells. In kind it is cell-based, human. Conditions: Homo sapiens, HEK293, 24 h, 50 μM; HEK 293 cells; Table 3; read-out: Fold increase in riboswitch 15D10-regulated luciferase expression, HEK. In short, it runs like this: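 Cells transfected with riboswitch-luciferase plasmid; 4 h later medium replaced with TPP or thiamine analogs (fursultiamine, prosultiamine, bisbentiamine, beclotiamine, sulbutiamine) as inducers.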
For orientation: In a reporter assay the amount or activity of a reporter protein is the signal.

Assay [2] relates to riboswitch 15D10. As to the kind of experiment: Luciferase reporter with 15D10 riboswitch (Luci-15D10) in AML12 cells. In kind it is cell-based, mouse. The conditions noted are these: Mus musculus, AML12, 24 h, 50 μM; AML12 cells; Table 3; read-out: Fold increase in riboswitch 15D10-regulated luciferase expression, AML.

25 molecules from patent publication US12570988B2, “Aptamers that bind thiamine analogs and derivatives” (MeiraGTx Gene Regulation Limited, priority 2020, dated 2026) can be followed below.

On to `C/C(=C(\CCO)SC(=O)c1c(Cl)cccc1Oc1ccccc1)N(C=O)Cc1cnc(C)nc1N` [Compound M127, (Z)—S-(2-(N-((4-amino-2-methylpyrimidin-5-yl)methyl)formamido)-5-hydroxypent-2-en-3-yl) 2-chloro-6-phenoxybenzothioate], for which the fold induction at 50 µM was 0.46 in the assay on riboswitch 15D10 [1] and 7.39 with riboswitch 15D10 [2].
Consider `C/C(=C(\CCO)SC(=O)c1c(C)cccc1Oc1ccccc1)N(C=O)Cc1cnc(C)nc1N` [Compound M128, (Z)—S-(2-(N-((4-amino-2-methylpyrimidin-5-yl)methyl)formamido)-5-hydroxypent-2-en-3-yl) 2-methyl-6-phenoxybenzothioate], for which the fold induction at 50 µM with riboswitch 15D10 [1] was found to be 0.56; in the assay with riboswitch 15D10 [2], 7.87.
For `C/C(=C(\CCO)SC(=O)c1c(F)cccc1OCc1ccccc1)N(C=O)Cc1cnc(C)nc1N` [Compound M129, (Z)—S-(2-(N-((4-amino-2-methylpyrimidin-5-yl)methyl)formamido)-5-hydroxypent-2-en-3-yl) 2-(benzyloxy)-6-fluorobenzothioate], in that order: 10.9 and 167.
Take `C/C(=C(\CCO)SC(=O)c1c(F)cccc1Oc1cccc(Cl)c1)N(C=O)Cc1cnc(C)nc1N` [Compound M130, (Z)—S-(2-(N-((4-amino-2-methylpyrimidin-5-yl)methyl)formamido)-5-hydroxypent-2-en-3-yl) 2-(3-chlorophenoxy)-6-fluorobenzothioate]: the fold induction at 50 µM was determined as 110 with riboswitch 15D10 [1] and 329 in the assay on riboswitch 15D10 [2].
For `C/C(=C(\CCO)SC(=O)c1cc(Cl)ccc1Oc1ccccc1)N(C=O)Cc1cnc(C)nc1N` [Compound M131, (Z)—S-(2-(N-((4-amino-2-methylpyrimidin-5-yl)methyl)formamido)-5-hydroxypent-2-en-3-yl) 5-chloro-2-phenoxybenzothioate], in that order: 741 and 509.
Turning to `C/C(=C(\CCO)SC(=O)c1ccc(C)cc1Oc1ccccc1Cl)N(C=O)Cc1cnc(C)nc1N` [Compound M133, (Z)—S-(2-(N-((4-amino-2-methylpyrimidin-5-yl)methyl)formamido)-5-hydroxypent-2-en-3-yl) 2-(2-chlorophenoxy)-4-methylbenzothioate], the fold induction at 50 µM in the assay on riboswitch 15D10 [1] came out at 100; with riboswitch 15D10 [2], 273.
For `C/C(=C(\CCO)SC(=O)c1cc(Cl)ccc1Oc1ccc(F)cc1)N(C=O)Cc1cnc(C)nc1N` [Compound M134, (Z)—S-(2-(N-((4-amino-2-methylpyrimidin-5-yl)methyl)formamido)-5-hydroxypent-2-en-3-yl) 5-chloro-2-(4-fluorophenoxy)benzothioate], in that order: 557 and 408.
For `C/C(=C(\CCO)SC(=O)c1ccccc1Oc1cccc(C#N)c1)N(C=O)Cc1cnc(C)nc1N` [Compound M135, (Z)—S-(2-(N-((4-amino-2-methylpyrimidin-5-yl)methyl)formamido)-5-hydroxypent-2-en-3-yl) 2-(3-cyanophenoxy)benzothioate], in that order: 87.5 and 44.5.
For `C/C(=C(\CCO)SC(=O)c1ccccc1Oc1ccccc1Cl)N(C=O)Cc1cnc(C)nc1N` [Compound M136, (Z)—S-(2-(N-((4-amino-2-methylpyrimidin-5-yl)methyl)formamido)-5-hydroxypent-2-en-3-yl) 2-(2-chlorophenoxy)benzothioate], the figures for the fold induction at 50 µM in the assay with riboswitch 15D10 [1] and in the assay on riboswitch 15D10 [2] were 132 and 263, respectively.
As to `C/C(=C(\CCO)SC(=O)c1ccccc1Oc1ccccc1Br)N(C=O)Cc1cnc(C)nc1N` [Compound M137, (Z)—S-(2-(N-((4-amino-2-methylpyrimidin-5-yl)methyl)formamido)-5-hydroxypent-2-en-3-yl) 2-(2-bromophenoxy)benzothioate], the fold induction at 50 µM is 140 with riboswitch 15D10 [1] and 288 with riboswitch 15D10 [2].
Regarding `C/C(=C(\CCO)SC(=O)c1ccccc1Oc1c(Cl)cccc1Cl)N(C=O)Cc1cnc(C)nc1N` [Compound M138, (Z)—S-(2-(N-((4-amino-2-methylpyrimidin-5-yl)methyl)formamido)-5-hydroxypent-2-en-3-yl) 2-(2,6-dichlorophenoxy)benzothioate], the fold induction at 50 µM is 228 with riboswitch 15D10 [1] and 195 in the assay on riboswitch 15D10 [2].
Turning to `C/C(=C(\CCO)SC(=O)c1ccccc1Oc1cccc(C(C)(C)C)c1)N(C=O)Cc1cnc(C)nc1N` [Compound M139, (Z)—S-(2-(N-((4-amino-2-methylpyrimidin-5-yl)methyl)formamido)-5-hydroxypent-2-en-3-yl) 2-(3-(tert-butyl)phenoxy)benzothioate], the fold induction at 50 µM turned out to be 37 in the assay with riboswitch 15D10 [1] and 188 in the assay with riboswitch 15D10 [2].
For `C/C(=C(\CCO)SC(=O)c1ccccc1Oc1ccc2ccccc2c1)N(C=O)Cc1cnc(C)nc1N` [Compound M140, (Z)—S-(2-(N-((4-amino-2-methylpyrimidin-5-yl)methyl)formamido)-5-hydroxypent-2-en-3-yl) 2-(naphthalen-2-yloxy)benzothioate], in that order: 175 and 192.
For `C/C(=C(\CCO)SC(=O)c1ccccc1Oc1cccc2cccnc12)N(C=O)Cc1cnc(C)nc1N` [Compound M141, (Z)—S-(2-(N-((4-amino-2-methylpyrimidin-5-yl)methyl)formamido)-5-hydroxypent-2-en-3-yl) 2-(quinolin-8-yloxy)benzothioate], in that order: 1.61 and 3.46.
For `C/C(=C(\CCO)SC(=O)c1c(F)cccc1Oc1ccccc1Cl)N(C=O)Cc1cnc(C)nc1N` [Compound M142, (Z)—S-(2-(N-((4-amino-2-methylpyrimidin-5-yl)methyl)formamido)-5-hydroxypent-2-en-3-yl) 2-(2-chlorophenoxy)-6-fluorobenzothioate], in that order: 85.3 and 184.
As to `CCOc1ccc(C(=O)S/C(CCO)=C(/C)N(C=O)Cc2cnc(C)nc2N)c(Oc2cccc(F)c2)c1` [Compound M143, (Z)—S-(2-(N-((4-amino-2-methylpyrimidin-5-yl)methyl)formamido)-5-hydroxypent-2-en-3-yl) 4-ethoxy-2-(3-fluorophenoxy)benzothioate], the results for the fold induction at 50 µM in the assay on riboswitch 15D10 [1] and with riboswitch 15D10 [2] were 138 and 300, respectively.
For `C/C(=C(\CCO)SC(=O)c1ccc(C(C)(C)C)cc1Oc1ccccc1)N(C=O)Cc1cnc(C)nc1N` [Compound M145, (Z)—S-(2-(N-((4-amino-2-methylpyrimidin-5-yl)methyl)formamido)-5-hydroxypent-2-en-3-yl) 4-(tert-butyl)-2-phenoxybenzothioate], in that order: 156 and 60.6.
For `C/C(=C(\CCO)SC(=O)c1ccccc1Oc1ccc(C(F)(F)F)nc1)N(C=O)Cc1cnc(C)nc1N` [Compound M146, (Z)—S-(2-(N-((4-amino-2-methylpyrimidin-5-yl)methyl)formamido)-5-hydroxypent-2-en-3-yl) 2-((6-(trifluoromethyl)pyridin-3-yl)oxy)benzothioate], in that order: 53.3 and 96.6.
For `C/C(=C(\CCO)SC(=O)c1ccccc1Oc1ccc2c(c1)OCCO2)N(C=O)Cc1cnc(C)nc1N` [Compound M147, (Z)—S-(2-(N-((4-amino-2-methylpyrimidin-5-yl)methyl)formamido)-5-hydroxypent-2-en-3-yl) 2-((2,3-dihydrobenzo[b][1,4]dioxin-6-yl)oxy)benzothioate], in that order: 193 and 267.
As for `C/C(=C(\CCO)SC(=O)c1cccc2c1oc1ccccc12)N(C=O)Cc1cnc(C)nc1N` [Compound M148, (Z)—S-(2-(N-((4-amino-2-methylpyrimidin-5-yl)methyl)formamido)-5-hydroxypent-2-en-3-yl) dibenzo[b,d]furan-4-carbothioate], the fold induction at 50 µM in the assay with riboswitch 15D10 [1] is 153; in the assay with riboswitch 15D10 [2], 288.
With `C/C(=C(\CCO)SC(=O)c1ccc(Oc2ccccc2)cc1Cl)N(C=O)Cc1cnc(C)nc1N` [Compound M149, (Z)—S-(2-(N-((4-amino-2-methylpyrimidin-5-yl)methyl)formamido)-5-hydroxypent-2-en-3-yl) 2-chloro-4-phenoxybenzothioate], the fold induction at 50 µM came out at 176 in the assay on riboswitch 15D10 [1] and 383 in the assay with riboswitch 15D10 [2].
As for `C/C(=C(\CCO)SC(=O)c1c(C)cc(Oc2ccccc2)cc1F)N(C=O)Cc1cnc(C)nc1N` [Compound M150, (Z)—S-(2-(N-((4-amino-2-methylpyrimidin-5-yl)methyl)formamido)-5-hydroxypent-2-en-3-yl) 2-fluoro-6-methyl-4-phenoxybenzothioate], the fold induction at 50 µM was found to be 12.3 in the assay on riboswitch 15D10 [1] and 12 with riboswitch 15D10 [2].
Turning to `C/C(=C(\CCO)SC(=O)c1ccc(Oc2cccc(Cl)c2)cc1C)N(C=O)Cc1cnc(C)nc1N` [Compound M151, (Z)—S-(2-(N-((4-amino-2-methylpyrimidin-5-yl)methyl)formamido)-5-hydroxypent-2-en-3-yl) 4-(3-chlorophenoxy)-2-methylbenzothioate], the fold induction at 50 µM was 20.5 with riboswitch 15D10 [1] and 231 with riboswitch 15D10 [2].
For `C/C(=C(\CCO)SC(=O)c1ccc(Oc2ccccc2)cc1Oc1ccccc1)N(C=O)Cc1cnc(C)nc1N` [Compound M152, (Z)—S-(2-(N-((4-amino-2-methylpyrimidin-5-yl)methyl)formamido)-5-hydroxypent-2-en-3-yl) 2,4-diphenoxybenzothioate], in that order: 68.9 and 36.6.
For `C/C(=C(\CCO)SC(=O)c1ccccc1Sc1ccccc1)N(C=O)Cc1cnc(C)nc1N` [Compound M153, (Z)—S-(2-(N-((4-amino-2-methylpyrimidin-5-yl)methyl)formamido)-5-hydroxypent-2-en-3-yl) 2-(phenylthio)benzothioate], the fold induction at 50 µM with riboswitch 15D10 [1] was 442; in the assay with riboswitch 15D10 [2], 535.
